This is an account of results in ChEMBL document CHEMBL1137226, “Structure modifications of 6-aminoquinolones with potent anti-HIV activity” (J Med Chem, 2004).

Experiment [1] deals with MT4. As to the kind of experiment: Maximum protection (%) of MT-4 cells from HIV-2 (ROD) induced cytopathogenicity. It counts as functional, Homo sapiens. (In general: Cytopathic effects are the visible damage that an infection or toxin causes in cultured cells.)
The subject of experiment [2] is MT4. As to the kind of experiment: Selectivity index towards HIV-1 (IIIB) in MT-4 cells. Type of experiment: functional, Homo sapiens.
For experiment [3], the system named is MT4. As to the kind of experiment: Maximum protection (%) of MT-4 cells from HIV-1 (IIIB) induced cytopathogenicity; value ranges from 5-9%. It counts as functional, Homo sapiens.
Experiment [4] relates to MT4. As to the kind of experiment: Selectivity index towards HIV-2 (ROD) in MT-4 cells. Type of experiment: functional, Homo sapiens.
The subject of experiment [5] is MT4. As to the kind of experiment: Concentration required for protection of MT-4 cells from HIV-2 (ROD) induced cytopathogenicity in MTT assay. Type of experiment: functional, cell-based. The settings on record: Homo sapiens.
Experiment [6] has as its system MT4. In words: Concentration required for protection of MT-4 cells from HIV-1 (IIIB) induced cytopathogenicity in MTT assay. Type of experiment: functional, cell-based. The settings on record: Homo sapiens.
The subject of experiment [7] is MT4. As to the kind of experiment: Concentration of compound that reduces the viability of mock-infected MT-4 cells by 50%. Type of experiment: functional. The settings on record: Homo sapiens.
Experiment [8] concerns CCRF-CEM. As to the kind of experiment: Selectivity index towards HIV-2 (ROD) in CEM cells. Type of experiment: functional, Homo sapiens.
For experiment [9], the system named is MT4. As to the kind of experiment: Maximum protection (%) of MT-4 cells from HIV-2 (ROD) induced cytopathogenicity; value ranges from 15-21%. Type of experiment: functional, Homo sapiens.
Experiment [10] is described as follows: Concentration of compound that reduces the viability of mock-infected peripheral blood mononuclear cells by 50%. The settings on record: Homo sapiens. It counts as functional.
Experiment [11] relates to CCRF-CEM. As to the kind of experiment: Concentration of compound that reduces the viability of mock-infected CEM cells by 50%. Type of experiment: functional. The following applies: Homo sapiens.
The nature of experiment [12]: Concentration of compound required for reduction of p24 production in HIV-1 (IIIB) infected peripheral blood mononuclear cells. Type of experiment: functional. The settings on record: Homo sapiens.
The subject of experiment [13] is CCRF-CEM. As to the kind of experiment: Concentration of compound required for protection of CEM cells from HIV-2 (ROD) induced cytopathogenicity. It counts as functional, cell-based. The settings on record: Homo sapiens.
The test system of experiment [14] is CCRF-CEM. As to the kind of experiment: Selectivity index towards HIV-1 (IIIB) in CEM cells. Type of experiment: functional, Homo sapiens.
Experiment [15] has as its system MT4. In words: Maximum protection (%) of MT-4 cells from HIV-1 (IIIB) induced cytopathogenicity; value ranges from 65-86%. Type of experiment: functional, Homo sapiens.
Experiment [16] in a line: Selectivity index towards HIV-1 (IIIB) in peripheral blood mononuclear cells. It counts as functional, Homo sapiens.
For experiment [17], the system named is CCRF-CEM. As to the kind of experiment: Concentration of compound required for protection of CEM cells from HIV-1 (IIIB) induced cytopathogenicity. Type of experiment: functional, cell-based. The settings on record: Homo sapiens.
Experiment [18] relates to MT4. In words: Maximum protection (%) of MT-4 cells from HIV-2 (ROD) induced cytopathogenicity; value ranges from 51-55%. It counts as functional, Homo sapiens.
The subject of experiment [19] is MT4. In words: Maximum protection (%) of MT-4 cells from HIV-1 (IIIB) induced cytopathogenicity; value ranges from 60-91%. Type of experiment: functional, Homo sapiens.
In experiment [20] the test system is MT4. In words: Maximum protection (%) of MT-4 cells from HIV-1 (IIIB) induced cytopathogenicity; value ranges from 16-21%. It counts as functional, Homo sapiens.
In experiment [21] the test system is MT4. In words: Maximum protection (%) of MT-4 cells from HIV-2 (ROD) induced cytopathogenicity; value ranges from 17-27%. It counts as functional, Homo sapiens.
Experiment [22] relates to MT4. In words: Maximum protection (%) of MT-4 cells from HIV-1 (IIIB) induced cytopathogenicity; value ranges from 11-24%. Type of experiment: functional, Homo sapiens.
In experiment [23] the test system is MT4. As to the kind of experiment: Maximum protection (%) of MT-4 cells from HIV-2 (ROD) induced cytopathogenicity; value ranges from 26-27%. Type of experiment: functional, Homo sapiens.
In experiment [24] the test system is MT4. In words: Maximum protection (%) of MT-4 cells from HIV-1 (IIIB) induced cytopathogenicity; value ranges from 35-59%. It counts as functional, Homo sapiens.
The subject of experiment [25] is MT4. In words: Maximum protection (%) of MT-4 cells from HIV-2 (ROD) induced cytopathogenicity; value ranges from 60-64%. It counts as functional, Homo sapiens.
The subject of experiment [26] is MT4. As to the kind of experiment: Maximum protection (%) of MT-4 cells from HIV-1 (IIIB) induced cytopathogenicity; value ranges from 9-24%. Type of experiment: functional, Homo sapiens.

Values after ≈ are worked out from the molar mass of the structure shown.

Usually EC50 stands for the concentration at which the effect is half-maximal. The low end stands for a more potent agent, the high end for a less potent agent. The term CC50 denotes the concentration at which the toxic effect on the cells reaches its halfway point. With `CC(=O)c1ccc(N2CCN(c3cc4c(cc3N)c(=O)c(C(=O)O)cn4C)CC2)cc1`, the Protection is on record as 13% in the experiment on MT4 [1] and below 9% with MT4 [3]. The Selectivity index with MT4 [2] and in the experiment on MT4 [4] was below 1 throughout. In addition, the 50% effective concentration (EC50) in the experiment with MT4 [5] and in the experiment on MT4 [6] was above 0.15 µg/mL each time. The CC50 in the experiment on MT4 [7] was 0.15 µg/mL (≈ 0.357 µM).

In the case of `Cn1cc(C(=O)O)c(=O)c2cc(N)c(N3CCN(c4nc5ccccc5o4)CC3)cc21`, the Selectivity index in the experiment with CCRF-CEM [8] was found to be 110; with MT4 [2], 6.5; in the experiment with MT4 [4], 11.3; in the experiment with CCRF-CEM [14], 220; in experiment [16], 26. Moreover, the results for the Protection in the experiment on MT4 [9] and in the experiment with MT4 [15] were below 21% and below 86%, respectively. Further, the 50% cytotoxic concentration (CC50) turned out to be 1.12 µg/mL (≈ 2.67 µM) in experiment [10], 2.2 µg/mL (≈ 5.25 µM) with CCRF-CEM [11] and 0.09 µg/mL (≈ 0.215 µM) in the experiment with MT4 [7]. In addition, the EC50 in [12] amounted to 0.04 µg/mL (≈ 0.0954 µM); in the experiment on CCRF-CEM [13] it was 0.02 µg/mL (≈ 0.0477 µM); in the experiment with MT4 [5] it was 0.0087 µg/mL (≈ 0.0207 µM); with MT4 [6] it was 0.01 µg/mL (≈ 0.0238 µM); in the experiment with CCRF-CEM [17], 0.01 µg/mL (≈ 0.0238 µM).

Turning to `Cn1cc(C(=O)O)c(=O)c2cc(N)c(N3CCN(c4cnccn4)CC3)cc21`, the Selectivity index in the experiment on CCRF-CEM [8] is above 500; with MT4 [2] it was 5.7; with MT4 [4], 2.6; in the experiment on CCRF-CEM [14], above 1250; in experiment [16] it was 81. Also, the Protection in the experiment with MT4 [18] is given as below 55%; with MT4 [19], below 91%. The half-maximal cytotoxic concentration (CC50) is 3.65 µg/mL (≈ 9.59 µM) in experiment [10], above 100 µg/mL in the experiment on CCRF-CEM [11] and 3.98 µg/mL (≈ 10.5 µM) in the experiment on MT4 [7]. Also, the concentration giving a half-maximal response (EC50) came to 0.04 µg/mL (≈ 0.105 µM) in experiment [12]; 0.2 µg/mL (≈ 0.526 µM) in the experiment with CCRF-CEM [13]; 1.54 µg/mL (≈ 4.05 µM) with MT4 [5]; 0.7 µg/mL (≈ 1.84 µM) with MT4 [6]; 0.08 µg/mL (≈ 0.21 µM) in the experiment with CCRF-CEM [17].

`COc1ccccc1N1CCN(c2cc3c(cc2N)c(=O)c(C(=O)O)cn3C)CC1`: the Protection in the experiment with MT4 [20] was below 21%; with MT4 [21], below 27%. The Selectivity index in the experiment with MT4 [2] and in the experiment on MT4 [4] was below 1 in each case. For the same molecule, the EC50 in the experiment on MT4 [5] and in the experiment on MT4 [6] was above 7.45 µg/mL each time. For the same molecule, the cytotoxic concentration (CC50) with MT4 [7] was 7.45 µg/mL (≈ 18.2 µM).

Take `CCn1cc(C(=O)O)c(=O)c2cc(N)c(N3CCN(c4ccccn4)CC3)cc21`: the figures for the Protection in the experiment on MT4 [22] and with MT4 [23] were below 24% and below 27%, respectively. Further, the Selectivity index in the experiment with MT4 [2] and with MT4 [4] was below 1 throughout. In addition, the half-maximal effective concentration (EC50) in the experiment with MT4 [5] and in the experiment on MT4 [6] was above 2.2 µg/mL in each case. Half-maximal cytotoxicity in the experiment on MT4 [7] (CC50) was put at 2.2 µg/mL (≈ 5.59 µM).

Consider `Cn1cc(C(=O)O)c(=O)c2cc(N)c(N3CCN(c4ccccn4)CC3)cc21`, for which the Selectivity index was above 1667 in the experiment with CCRF-CEM [8]; “<=2.4” in the experiment with MT4 [2]; 3.7 with MT4 [4]; above 3333 in the experiment with CCRF-CEM [14]; 28 in [16]. In addition, the CC50 in [10] was 1.45 µg/mL (≈ 3.82 µM); in the experiment with CCRF-CEM [11], above 100 µg/mL; in the experiment on MT4 [7], 0.71 µg/mL (≈ 1.87 µM). Besides, the EC50 was 0.05 µg/mL (≈ 0.132 µM) in experiment [12]; 0.06 µg/mL (≈ 0.158 µM) in the experiment on CCRF-CEM [13]; 0.19 µg/mL (≈ 0.501 µM) in the experiment with MT4 [5]; at least 0.29 µg/mL in the experiment with MT4 [6]; 0.03 µg/mL (≈ 0.0791 µM) in the experiment on CCRF-CEM [17]. Also, the Protection in the experiment on MT4 [24] was below 59%; in the experiment with MT4 [25], below 64%.

Take `COc1ccccc1N1CCN(c2cc3c(cc2N)c(=O)c(C(=O)O)cn3C2CC2)CC1`: the Protection is listed as 10% in the experiment on MT4 [1] and below 24% in the experiment with MT4 [26]. The Selectivity index in the experiment with MT4 [2] and in the experiment on MT4 [4] was below 1 each time. Further, the concentration giving a half-maximal response (EC50) in the experiment on MT4 [5] and with MT4 [6] was above 10.3 µg/mL in each case. This molecule also showed a CC50 in the experiment with MT4 [7] of 10.3 µg/mL (≈ 23.8 µM).
